Activity calls are given as the source filed them. The calls are words filed in the database; no cut-off is given here.

The source of these data is ChEMBL document CHEMBL3351753, “Inhibitory effects of ginseng sapogenins on the proliferation of triple negative breast cancer MDA-MB-231 cells” (Bioorg Med Chem Lett, 2014).

Experiment [1] has as its system MDA-MB-231. Description: Antiproliferative activity against human MDA-MB-231 cells after 4 hrs by MTT assay. The class given is functional, cell-based. The conditions noted are these: MDA-MB-231, 4 h. A general note: Tetrazolium dyes change colour on reduction, which living cells bring about.
Experiment [2] deals with MDA-MB-231. In words: Induction of apoptosis in human MDA-MB-231 cells assessed as increase in cells at early apoptotic phase at 2.5 uM after 24 hrs by annexin-V-FITC/propidium iodide staining- based flow cytometric analysis (reference value: 4.76%). The class given is functional. For orientation: In flow cytometry, cells or beads pass a laser one at a time.
Experiment [3] deals with MDA-MB-231. In words: Induction of apoptosis in human MDA-MB-231 cells assessed as increase in expression of cleaved caspase 8 at 2.5 to 5.8 uM after 24 hrs by SDS-polyactylamide gel electrophoresis. Type of experiment: functional, cell-based.
For experiment [4], the system named is MDA-MB-231. Description: Induction of apoptosis in human MDA-MB-231 cells assessed as increase in expression of cleaved caspase 3 at 2.5 to 5.8 uM after 24 hrs by SDS-polyactylamide gel electrophoresis. The class given is functional, cell-based.
For experiment [5], the system named is LLC-PK1. In words: Cytotoxicity against pig LLC-PK1 cells after 4 hrs by MTT assay. Type of experiment: cell-based. To be noted: Sus scrofa, LLC-PK1, 4 h.
The test system of experiment [6] is MDA-MB-231. Description: Induction of apoptosis in human MDA-MB-231 cells assessed as increase in expression of cleaved PARP at 2.5 to 5.8 uM after 24 hrs by SDS-polyactylamide gel electrophoresis. Type of experiment: functional, cell-based.
Experiment [7] has as its system MDA-MB-231. In words: Induction of apoptosis in human MDA-MB-231 cells assessed as decrease in expression of full-length BID at 2.5 to 5.8 uM after 24 hrs by SDS-polyactylamide gel electrophoresis. The class given is functional, cell-based.

Broadly, the IC50 is the point on the concentration scale where inhibition reaches its midpoint. Low values mean greater potency in that assay, high ones weaker potency in that assay. Turning to `O=C(O[C@@H]1Cc2c(O)cc(O)cc2O[C@@H]1c1cc(O)c(O)c(O)c1)c1cc(O)c(O)c(O)c1` [EPIGALOCATECHIN GALLATE], the concentration for half-maximal inhibition (IC50) in experiment [1] turned out to be 76.1 µM.
In experiment [1], `CC(C)CCC[C@](C)(O)[C@H]1CC[C@]2(C)[C@@H]1[C@H](O)C[C@@H]1[C@@]3(C)CC[C@H](O)C(C)(C)[C@@H]3[C@@H](O)C[C@]12C` gave an IC50 of 25.8 µM.
Still for that read-out and setting: the figure for `COc1cccc2c1C(=O)c1c(O)c3c(c(O)c1C2=O)C[C@@](O)(C(=O)CO)C[C@@H]3O[C@H]1C[C@H](N)[C@H](O)[C@H](C)O1` [DOXORUBICIN] is 2.9 µM; for `COc1cc(/C=C/C(=O)CC(=O)/C=C/c2ccc(O)c(OC)c2)ccc1O` [CURCUMIN] it is 34.4 µM; for `CC(=O)O[C@H]1C(=O)[C@@]2(C)[C@H]([C@H](OC(=O)c3ccccc3)[C@]3(O)C[C@H](OC(=O)[C@H](O)[C@@H](NC(=O)c4ccccc4)c4ccccc4)C(C)=C1C3(C)C)[C@]1(OC(C)=O)CO[C@@H]1C[C@@H]2O` [PACLITAXEL] it is 6.2 µM.
On the same count and under the same terms, the figure for `CC(C)CCC[C@](C)(O)[C@H]1CC[C@]2(C)[C@@H]1[C@H](O)C[C@@H]1[C@@]3(C)CC[C@H](O)C(C)(C)[C@@H]3CC[C@]12C` is 27 µM; for `CC(C)=CCC[C@](C)(O)[C@H]1CC[C@]2(C)[C@@H]1[C@H](O)C[C@@H]1[C@@]3(C)CC[C@H](O)C(C)(C)[C@@H]3[C@@H](O)C[C@]12C` it is 12.2 µM.
As for `CC(C)=CCC[C@](C)(O)[C@H]1CC[C@]2(C)[C@@H]1[C@H](O)C[C@@H]1[C@@]3(C)CC[C@H](O)C(C)(C)[C@@H]3CC[C@]12C`, in experiment [2], the Activity turned out to be 8.18%. Besides, the outcome in experiment [3], in experiment [4], in experiment [6] and in experiment [7] was Active. Moreover, the IC50 came to 5.9 µM in experiment [1] and 36.7 µM in experiment [5].
